In ChEMBL document CHEMBL1146197, “Evolution of TEM-type enzymes: biochemical and genetic characterization of two new complex mutant TEM enzymes, TEM-151 and TEM-152, from a single patient” (Antimicrob Agents Chemother, 2007):
Converted amounts (≈) assume the structure as drawn.

Assays:
[1] = tested on: Escherichia coli; assay: microbe, parasite or virus in culture; format: functional; conditions: DH5alpha
Description: Antimicrobial activity against recombinant Escherichia coli DH5-alpha CL1179 isolate expressing pBK-TEM-152 and CMT by disk diffusion assay

[2] = tested on: Escherichia coli; assay: Antimicrobial activity against Escherichia coli DH5-alpha isolate expressing pBK-CMV by […]; format: functional; conditions: DH5alpha
[3] = tested on: Escherichia coli; assay: Antimicrobial activity against Escherichia coli DH5-alpha TC1295 isolate expressing TEM-1 by […]; format: functional; conditions: DH5alpha
[4] = tested on: Escherichia coli; assay: Antimicrobial activity against recombinant Escherichia coli DH5-alpha isolate expressing pBK-TEM-1 and TEM1 by disk diffusion assay; format: functional; conditions: DH5alpha
[5] = tested on: Escherichia coli; assay: microbe, parasite or virus in culture; format: functional; conditions: DH5alpha; remark: listed apart in the source
Description: Antimicrobial activity against recombinant Escherichia coli DH5-alpha CL1295 isolate expressing pBK-TEM-151 and CMT by disk diffusion assay

[6] = tested on: Escherichia coli; assay: Antimicrobial activity against recombinant Escherichia coli DH5-alpha isolate expressing pBK-TEM-36 and IRT by disk diffusion assay; format: functional; conditions: DH5alpha
[7] = tested on: Escherichia coli; assay: Antimicrobial activity against recombinant Escherichia coli DH5-alpha isolate expressing pBK-TEM-28 and ESBL by disk diffusion assay; format: functional; conditions: DH5alpha
[8] = tested on: Escherichia coli; assay: Antimicrobial activity against recombinant Escherichia coli DH5-alpha isolate expressing pBK-TEM-29 and ESBL by disk diffusion assay; format: functional; conditions: DH5alpha
[9] = tested on: Escherichia coli; assay: Antimicrobial activity against Escherichia coli DH5-alpha TC1179 isolate expressing TEM-1 by […]; format: functional; conditions: DH5alpha
[10] = tested on: Escherichia coli; assay: Antimicrobial activity against Escherichia coli DH5-alpha CF1295 isolate expressing CMT and TEM1 by […]; format: functional; conditions: DH5alpha
[11] = tested on: Escherichia coli; assay: Antimicrobial activity against Escherichia coli DH5-alpha CF1179 isolate expressing CMT and TEM1 by […]; format: functional; conditions: DH5alpha
[12] = tested on: Escherichia coli; assay: Activity of Escherichia coli BL21(DE3) beta-lactamase TEM1
[13] = tested on: Escherichia coli; assay: Activity of Escherichia coli BL21(DE3) beta-lactamase TEM152
[14] = tested on: Escherichia coli; assay: Activity of Escherichia coli BL21(DE3) beta-lactamase TEM29
[15] = tested on: Escherichia coli; assay: Activity of Escherichia coli BL21(DE3) beta-lactamase TEM28
[16] = tested on: Escherichia coli; assay: Activity of Escherichia coli BL21(DE3) beta-lactamase TEM151
[17] = tested on: Escherichia coli; assay: Activity of Escherichia coli BL21(DE3) beta-lactamase TEM36
[18] = Inhibition of Escherichia coli BL21(DE3) beta-lactamase TEM28
[19] = Inhibition of Escherichia coli BL21(DE3) beta-lactamase TEM152
[20] = Inhibition of Escherichia coli BL21(DE3) beta-lactamase TEM1
[21] = Inhibition of Escherichia coli BL21(DE3) beta-lactamase TEM151
[22] = Inhibition of Escherichia coli BL21(DE3) beta-lactamase TEM36
[23] = Inhibition of Escherichia coli BL21(DE3) beta-lactamase TEM29

Compound	MIC [1]	MIC [2]	MIC [3]	MIC [4]	MIC [5]	MIC [6]	MIC [7]	MIC [8]	MIC [9]	MIC [10]	MIC [11]	Km [12]	kcat [12]	kcat/Km [12]	Km [13]	kcat [13]	kcat/Km [13]	Km [14]	kcat [14]	kcat/Km [14]	further results
CO/N=C(\C(=O)N[C@@H]1C(=O)N2C(C(=O)O)=C(COC(N)=O)CS[C@H]12)c1ccco1 [CEFUROXIME]	8 µg/mL (≈ 18.9 µM)	4 µg/mL (≈ 9.43 µM)	4 µg/mL (≈ 9.43 µM)	4 µg/mL	8 µg/mL (≈ 18.9 µM)	8 µg/mL	16 µg/mL	1020 µg/mL	4 µg/mL (≈ 9.43 µM)	8 µg/mL (≈ 18.9 µM)	8 µg/mL (≈ 18.9 µM)	–	–	–	–	–	–	–	–	–	–
CC(=O)OCC1=C(C(=O)O)N2C(=O)[C@@H](NC(=O)Cc3cccs3)[C@H]2SC1 [CEPHALOTHIN]	16 µg/mL (≈ 40.4 µM)	4 µg/mL (≈ 10.1 µM)	4 µg/mL (≈ 10.1 µM)	4 µg/mL	8 µg/mL (≈ 20.2 µM)	16 µg/mL	128 µg/mL	64 µg/mL	4 µg/mL (≈ 10.1 µM)	32 µg/mL (≈ 80.7 µM)	32 µg/mL (≈ 80.7 µM)	242 µM	165 s⁻¹	700000 M⁻¹ s⁻¹	260 µM	4 s⁻¹	20000 M⁻¹ s⁻¹	205 µM	126 s⁻¹	610000 M⁻¹ s⁻¹	Km [15]: 288 µM; kcat [15]: 194 s⁻¹; kcat/Km [15]: 670000 M⁻¹ s⁻¹; Km [16]: 330 µM; kcat [16]: 15 s⁻¹; kcat/Km [16]: 40000 M⁻¹ s⁻¹; Km [17]: 335 µM; kcat [17]: 18.4 s⁻¹; kcat/Km [17]: 50000 M⁻¹ s⁻¹
O=C(O)[C@H]1/C(=C/CO)O[C@@H]2CC(=O)N21 [CLAVULANIC ACID]	–	–	–	–	–	–	–	–	–	–	–	–	–	–	–	–	–	–	–	–	IC50 [18]: 20 nM; IC50 [19]: 1000 nM; IC50 [20]: 25 nM; IC50 [21]: 170 nM; IC50 [22]: 80 nM; IC50 [23]: 20500 nM
CCN1CCN(C(=O)N[C@@H](C(=O)N[C@@H]2C(=O)N3[C@@H]2SC(C)(C)[C@@H]3C(=O)O)c2ccccc2)C(=O)C1=O [PIPERACILLIN]	> 2050 µg/mL	2 µg/mL (≈ 3.86 µM)	512 µg/mL (≈ 989 µM)	512 µg/mL	256 µg/mL (≈ 495 µM)	> 2050 µg/mL	> 2050 µg/mL	1020 µg/mL	512 µg/mL (≈ 989 µM)	512 µg/mL (≈ 989 µM)	> 2050 µg/mL	55 µM	1250 s⁻¹	2.3e+06 M⁻¹ s⁻¹	50 µM	306 s⁻¹	6.12e+06 M⁻¹ s⁻¹	39 µM	336 s⁻¹	8.6e+06 M⁻¹ s⁻¹	Km [15]: 27 µM; kcat [15]: 213 s⁻¹; kcat/Km [15]: 7.9e+06 M⁻¹ s⁻¹; Km [16]: 44 µM; kcat [16]: 172 s⁻¹; kcat/Km [16]: 3.9e+06 M⁻¹ s⁻¹; Km [17]: 170 µM; kcat [17]: 1220 s⁻¹; kcat/Km [17]: 7.1e+06 M⁻¹ s⁻¹
C[C@]1(Cn2ccnn2)[C@H](C(=O)O)N2C(=O)C[C@H]2S1(=O)=O [TAZOBACTAM]	–	–	–	–	–	–	–	–	–	–	–	–	–	–	–	–	–	–	–	–	IC50 [18]: 20 nM; IC50 [19]: 400 nM; IC50 [20]: 30 nM; IC50 [21]: 270 nM; IC50 [22]: 130 nM; IC50 [23]: 2400 nM
CC1(C)S[C@@H]2[C@H](NC(=O)[C@H](C(=O)O)c3ccsc3)C(=O)N2[C@H]1C(=O)O [TICARCILLIN]	> 2050 µg/mL	2 µg/mL (≈ 5.2 µM)	> 2050 µg/mL	> 2050 µg/mL	> 2050 µg/mL	> 2050 µg/mL	> 2050 µg/mL	> 2050 µg/mL	> 2050 µg/mL	> 2050 µg/mL	> 2050 µg/mL	36 µM	135 s⁻¹	3.8e+06 M⁻¹ s⁻¹	36 µM	51 s⁻¹	1.4e+06 M⁻¹ s⁻¹	14 µM	42 s⁻¹	3e+06 M⁻¹ s⁻¹	Km [15]: 9 µM; kcat [15]: 38 s⁻¹; kcat/Km [15]: 4.2e+06 M⁻¹ s⁻¹; Km [16]: 21 µM; kcat [16]: 60 s⁻¹; kcat/Km [16]: 2.9e+06 M⁻¹ s⁻¹; Km [17]: 130 µM; kcat [17]: 176 s⁻¹; kcat/Km [17]: 1.3e+06 M⁻¹ s⁻¹
